Experimental data published in patent US12576107B2, “Methods of treating chronic inflammatory diseases” (METIMEDI PHARMACEUTICALS CO., LTD., priority 2018, dated 2026).

Key:
6-OHDA injected rats = experiment: Parkinson's disease model, desipramine and 6-OHDA injection; assay type: in vivo, Sprague-Dawley (SD) rats; conditions: 2 mg/kg daily subcutaneous 21 days; 6-OHDA rats
Procedure: Animals. […] Eight-week old male Sprague-Dawley (SD) rats were obtained from Samtako Co. (Osan, Gyeonggi-do, Republic of Korea) and bred under specific-pathogen-free (SPF) conditions. All animals were maintained in a 12-hour light/dark cycle at 22-25° C. with free access to food and water.
Desipramine (12.5 mg/kg; noradrenaline transporter blocker; Sigma Aldrich, St. Louis, USA) was dissolved in saline for intraperitoneal injection. 6-OHDA (20 μg/rat, Sigma Aldrich, St. Louis, USA) was dissolved in saline for intracranial injection.
Injection of desipramine and 6-OHDA. The animals were injected with desipramine into the abdominal cavity (intraperitoneal injection) 30 min before 6-OHDA injection. 30 min after Desipramine injection, the animals were placed in a small acrylic cage that was coupled with an anesthesia machine that allowed them to breathe freely under gaseous anesthesia (2% isoflurane, Spartanburg, SC, USA). […] The animal fur of head was shaved with an electric clipper, and the skin was swabbed with iodine. All the surgical materials disinfected with 70% ethanol. Hamilton syringe barrel inner space was cleaned with distilled water and 70% ethanol. The Hamilton syringe was placed in the syringe holder. […] The three coordinates (AP: −5.6, LM: 2.0, and DV: −7.6) on the manipulator (in mm) were read and used as the starting point. […]

[1] = test system: High cholesterol diet supplied ApoE-deficient mice (Atherosclerosis); experiment: Vascular disease (atherosclerosis) model, high fat diet ApoE-deficient mice; assay type: in vivo, BALB/c ApoE^shi mice
Procedure: Animals. […] Fibe-week old male BALB/c ApoE^shi mice were obtained from Japan SLC Inc. (Shizuoka, Japan) and bred under specific-pathogen-free (SPF) conditions. All animals were maintained in a 12-hour light/dark cycle at 22-25° C. with free access to food and water.
Calcium lactate was purchased from Sigma Aldrich (St. Louis, MO, USA).
Animal model for vascular disease. BALB/c ApoE^shi species is used for spontaneous induction of vascular disease. In this investigation, a high fat (40%) diet was provided for 4 weeks to induce strong atherosclerosis.
Histological analysis. The thoracic aorta was transected, and a half of the aorta was fixed in 10% neutral buffer formalin fixative solution. Then, histological analysis was performed. Histological analysis was performed with H&E and Oil red O staining. Aortic wall thickness, atherosclerotic plaque areas, foam cell numbers, and lipidated regions were analyzed.
Statistical analysis. Statistical analysis was performed using SPSS statistics, and the results were analyzed using Student t-test. Histologic analysis was performed using the Mann-Whitney method. P<0.05 was considered statistically significant.

hypoxia-mediated factors = experiment: Liver CID in vitro experiment, Western blot in HepG2 cells; assay type: cell-based, Human; conditions: 2.5 mM, HepG2 cells (liver epithelium)
Procedure: Human Hepatocellular carcinoma cell line, HepG2, was purchased from American Type Culture Collection (Manassas, VA, USA). The HepG2 cells were maintained in RPMI 1640 containing 10% fetal bovine serum (Life Technologies, Gaithersburg, MD, USA), 100 IU/ml penicillin, and 100 μg/ml streptomycin (Welgene, Daegu, South Korea).
To prepare whole cell lysate, cells were lysed with lysis buffer (1% NP-40, 0.25% sodium deoxycholate, 150 mM NaCl, 1 mM EDTA, 1% Triton X-100, 50 mM Tris-HCl (pH 7.4), 10% Glycerol) with protease inhibitor cocktail (Roche, Basel, Switzerland) and phosphatase inhibitors (NA3VO4 1 mM, NaF 100 mM). Then, protein concentration was measured using the Bicinchoninic acid (BCA) assay kit (Thermo Scientific, Waltham, MA). Whole cell or nuclear lysates were transferred onto polyvinylidene fluoride membranes (Merck Millipore, Billerica, MA, USA). After blocking in 5% non-fat milk (Bio-Rad, Hercules, CA, USA) for 1 h, the membranes were incubated overnight at 4° C. with primary antibody diluted in TBST containing 100 mM Tris-HCl (pH 7.5), 1.5 M NaCl, and 0.5% Tween-20 obtained from Sigma-Aldrich, to which 5% BSA and 0.1% sodium azide (Sigma-Aldrich) had been added. Specific primary antibodies to HIF-1α (1:1000), HIF-2α (1:1000), LDH-A (1:1000), LDH-B (1:1000), TLR-4 (1:1000), NF-κB (1:1000), VEGF (1:1000), α-tubulin (1:1000), Actin (1:1000), and GAPDH (1:5000). […]

[2] = 2 mg/kg daily subcutaneous, male ApoE-deficient mice, mean ± S.E.M.
[3] = male ApoE-deficient mice, n = 8, mean ± S.E.M.

Compound: CC(O)C(=O)[O-].CC(O)C(=O)[O-].[Ca+2] (stereo not drawn) [calcium lactate]
- dopaminergic neuron (tyrosine hydroxylase staining) (6-OHDA injected rats): Recovery
- ATHEROSCLEROTIC PLAQUE AREAS [1, 2]: 0.10 ± 0.03^++ mm^2
- FOAM CELL NUMBERS [1, 2]: 39.00 ± 10.13^+ cells/mm^2
- LIPID DEPOSITED REGIONS [1, 2]: 0.09 ± 0.03^++ mm^2
- MEAN AORTA WALL THICKNESS [1, 2]: 85.83 ± 8.70^+ μm
- atherosclerotic lesions of aorta (H&E, oil red O) ([1]; ApoE-deficient mice): decreased
- pathogenic factors cholesterol (TCHO), LDL cholesterol (LDL), triglycerides (TG), HDL-cholesterol (HDL) ([1]; ApoE-deficient mice, blood): not controlled
- HDL (clinical blood biochemistry) [1, 3]: 197.2 ± 3.7 mg/dL
- LDL (clinical blood biochemistry) [1, 3]: 1537.1 ± 14.2 mg/dL
- TCHO (clinical blood biochemistry) [1, 3]: 2328.0 ± 56.7 mg/dL
- TG (clinical blood biochemistry) [1, 3]: 54.8 ± 2.8 mg/dL
- hypoxia-mediated factors, Western blot (hypoxia-mediated factors): changed
